This note sets out measurements from patent publication US8410107B2, “N-pyridin-3-yl or N-pyrazin-2-yl carboxamides” (Hoffmann-La Roche Inc., priority 2010, dated 2013).

For orientation: inhibition means the relative decrease from the control value, in per cent. As usually defined, the EC50 is the concentration at which the effect is half-maximal. Low readings indicate an effect from little substance, high ones a need for much substance.

One assay concerns ABCA1 protein. The assay is described as follows: Detection of upregulation of ABCA1 protein in cells (ApoA-I binding, high content image analysis). Format: cell-based. The conditions noted are these: THP-1 macrophage cells; for % increase of ABCA1 at 3 μM: 24 hrs with compound; for EC50: ABCA1 protein increasing efficacy. In short, it runs like this: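 THP-1 cells differentiated with 100 nM PMA for 68 hrs, loaded with 25 μg/ml acetylated LDL for 24 hours, then exposed to compound (0.5% DMSO) for 24 hrs. Surface ABCA1 measured by binding of AlexaFluor 647-labeled human ApoA-I (20 nM, 2 h, 37 °C) with confocal high-content imaging; EC50 from one-site dose-response fit.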

Another assay addresses T1, human CB1 receptor (Homo sapiens, UniProt P21554).
T1 construct: expressed in transfected cells; host or cells: human embryonic kidney (HEK) cells, Semliki Forest Virus system, membrane preparations
Nature of the assay: CB1 receptor affinity ([3H]-CP-55,940 displacement, HEK cell membranes). The assay is classed as binding. The conditions noted are these: displacement of radioligand [3H]-CP-55,940. In outline:
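HEK cell membranes transiently expressing human CB1 (Semliki Forest Virus) incubated with [3H]-CP-55,940 and compound at 10 μM. Bound and free ligand separated by glass-fibre filtration, then scintillation counting. Reported as % inhibition of radioligand binding.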

Another assay has as its target T2, human CB2 receptor (Homo sapiens, UniProt P34972).
T2 construct: expressed in transfected cells; host or cells: human embryonic kidney (HEK) cells, Semliki Forest Virus system, membrane preparations
The assay is described as follows: CB2 receptor affinity ([3H]-CP-55,940 displacement, HEK cell membranes). The assay is classed as binding. To be noted: displacement of radioligand [3H]-CP-55,940. In short, it runs like this:
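Membranes from HEK cells transiently expressing human CB2 via Semliki Forest Virus, incubated with [3H]-CP-55,940 ± compound; bound ligand separated by glass-fiber filtration and counted by scintillation. Reported as % inhibition of radioligand binding at 10 μM compound.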

T1 sequence (P21554 whole entry): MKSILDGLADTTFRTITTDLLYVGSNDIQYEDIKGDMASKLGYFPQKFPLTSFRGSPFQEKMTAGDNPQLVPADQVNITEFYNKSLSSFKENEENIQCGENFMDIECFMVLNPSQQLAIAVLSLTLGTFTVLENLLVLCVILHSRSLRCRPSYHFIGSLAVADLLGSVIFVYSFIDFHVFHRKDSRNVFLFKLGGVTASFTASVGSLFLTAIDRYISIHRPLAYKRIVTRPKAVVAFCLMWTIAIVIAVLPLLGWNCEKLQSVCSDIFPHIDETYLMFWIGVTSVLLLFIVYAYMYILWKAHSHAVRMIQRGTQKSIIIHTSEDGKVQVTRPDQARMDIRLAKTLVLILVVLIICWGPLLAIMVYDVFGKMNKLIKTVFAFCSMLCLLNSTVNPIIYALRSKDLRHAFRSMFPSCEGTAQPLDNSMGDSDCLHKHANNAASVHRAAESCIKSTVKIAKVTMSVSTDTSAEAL
T2 sequence (P34972 whole entry): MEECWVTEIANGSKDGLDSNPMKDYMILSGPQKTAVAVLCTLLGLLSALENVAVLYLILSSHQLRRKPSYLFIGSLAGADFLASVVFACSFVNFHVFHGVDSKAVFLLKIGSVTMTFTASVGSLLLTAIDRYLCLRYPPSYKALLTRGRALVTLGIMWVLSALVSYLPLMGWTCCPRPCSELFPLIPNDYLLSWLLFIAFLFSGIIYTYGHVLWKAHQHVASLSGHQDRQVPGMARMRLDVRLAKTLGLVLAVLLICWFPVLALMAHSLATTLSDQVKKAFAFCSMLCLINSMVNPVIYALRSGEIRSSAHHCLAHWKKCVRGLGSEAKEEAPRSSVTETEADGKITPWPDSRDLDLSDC

For `O=C(Nc1cnc(OC2CCC2)c(-c2ccc(Cl)cc2)c1)c1cnccn1` [Example 78, N-(5-(4-chlorophenyl)-6-cyclobutoxypyridin-3-yl)pyrazine-2-carboxamide], the “% increase of ABCA1 at 3 μM” value in the assay on ABCA1 protein is above 45% @ 3 μM. Also, the inhibition at 10 µM came out at 25% at human CB1 receptor and 26% on human CB2 receptor.
On to `CN1CCOc2cc(C(=O)Nc3cnc(OCC(F)(F)F)c(-c4ccc(Cl)cc4)c3)cnc21` [Example 72, N-(5-(4-chlorophenyl)-6-(2,2,2-trifluoroethoxy)pyridin-3-yl)-4-methyl-3,4-dihydro-2H-pyrido[3,2-b][1,4]oxazine-7-carboxamide], for which, in the assay with ABCA1 protein, the EC50 was 780 nM. Moreover, the results for the inhibition at 10 µM on human CB1 receptor and at human CB2 receptor were 25% and -7%, respectively.
The like results for `O=C(Nc1cnc(OCC(F)(F)F)c(-c2ccc(Cl)cc2)c1)c1ccccc1` [Example 2, N-[5-(4-chloro-phenyl)-6-(2,2,2-trifluoro-ethoxy)-pyridin-3-yl]-benzamide] were, in that order, 2690 nM, 33% and 4.9%.
Take `CO[C@H](C)C(=O)Nc1cnc(OCC(F)(F)F)c(-c2ccc(Cl)cc2)c1` [Example 88, (+)-N-(5-(4-chlorophenyl)-6-(2,2,2-trifluoroethoxy)pyridin-3-yl)-2-methoxypropanamide]: the “% increase of ABCA1 at 3 μM” value with ABCA1 protein is above 45% @ 3 μM. In addition, the inhibition at 10 µM at human CB1 receptor was 41%; at human CB2 receptor, 16%.
The molecule `C[C@H](Oc1ncc(NC(=O)c2cccnn2)cc1-c1ccc(Cl)cc1)C(F)(F)F` [Example 42, (S)-N-(5-(4-chlorophenyl)-6-(1,1,1-trifluoropropan-2-yloxy)pyridin-3-yl)pyridazine-3-carboxamide] returned an EC50 in the assay on ABCA1 protein of 8540 nM. Besides, the inhibition at 10 µM at human CB1 receptor came to 23%; at human CB2 receptor, 6%.
The like results for `CN1CCOc2cc(C(=O)Nc3cnc(OCC(F)(F)F)c(-c4ccc(Cl)c(F)c4)c3)cnc21` [Example 81, N-(5-(4-chloro-3-fluorophenyl)-6-(2,2,2-trifluoroethoxy)pyridin-3-yl)-4-methyl-3,4-dihydro-2H-pyrido[3,2-b][1,4]oxazine-7-carboxamide] were, in that order, 2560 nM, 21% and 5%.
On to `Cc1cc(-c2cc(NC(=O)c3cncnc3)cnc2OCC(F)(F)F)ccc1Cl` [Example 52, N-(5-(4-chloro-3-methylphenyl)-6-(2,2,2-trifluoroethoxy)pyridin-3-yl)pyrimidine-5-carboxamide], for which the “% increase of ABCA1 at 3 μM” value with ABCA1 protein is recorded as above 45% @ 3 μM. In addition, the inhibition at 10 µM at human CB1 receptor amounted to 34%; on human CB2 receptor it was 6%.
